Assays:
MiaPaCa-2 = experiment: Cell viability assay (CellTiter Glo), pancreatic carcinoma MiaPaCa-2; type: cell-based; conditions: Homo sapiens, MIA PaCa-2; pancreatic carcinoma, 96 hours, CellTiter Glo; read-out: IC50 MiaPaCa-2
In short: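 MiaPaCa-2 and AsPC-1 cells were seeded overnight at 37 °C and exposed for 96 h to 9-point, 3-fold dilutions from up to 30 μM (final DMSO ≤0.25%). CellTiter Glo luminescence was read, and inhibition was calculated relative to DMSO-only cells. IC50, relative IC50 or % top inhibition was derived.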

143B = experiment: Cell viability assay (CellTiter Glo), osteosarcoma 143B; type: cell-based; conditions: Homo sapiens, 96 h, osteosarcoma, 96 hours, CellTiter Glo, read-out: IC50 143B
Method: (§1) Cell viability assay was performed to assess the potency of the compounds in human cancer cell lines KP4 (pancreatic ductal adenocarcinoma), MiaPaCa-2 (pancreatic carcinoma), AsPC-1 (pancreatic adenocarcinoma, ascites), 143B (osteosarcoma), and SJSA-1 (osteosarcoma). Selected compounds were also assayed in a human breast epithelial cell line MCF-10A, a nontumorigenic cell line as a control to assess differential activity. Cells at a density of 500-5,000 cells/well were seeded in 96-well plates and incubated at 37° C. overnight. A series of 9 different concentrations of compound stocks (500×) were created by 3-fold serial dilution in DMSO. These compounds were further diluted in culture media and then added to cells so that the final DMSO concentration was equal to 0.25% or less. After 96 hours of incubation, 50 μL of CellTiter Glo reagent (Promega) was added to each well and luminescence was measured after 10 minutes using EnVision (PerkinElmer). Compounds titrated from top concentration of up to 30 μM. The select compounds were tested initially from 30 μM as the top concentration in duplicates (range of 4.6 nM-30 μM). […] Luminescence from cells treated with DMSO alone was set as Max and % of inhibition was calculated as follows: Inhibition %=(Max-Sample value)/Max*100. Data was analyzed using XL-fit software (ID Business Solutions Ltd.). IC50, relative IC50, or % of top inhibition was calculated.
(§2) The results of the assay in sarcoma cell lines are given in Table 21a for HT-1080 luc2 (fibrosarcoma expressing a luciferase gene), Table 21b for 143B (osteosarcoma), and Table 21c for SJSA-1 (osteosarcoma).

SJSA-1 = experiment: Cell viability assay (CellTiter Glo), osteosarcoma SJSA-1; type: cell-based; conditions: Homo sapiens, 96 hours
Method: as §1, §2

MCF-10A = experiment: Cell viability assay (CellTiter Glo), non-tumorigenic breast epithelial cell line MCF-10A; type: cell-based; conditions: Homo sapiens, 96 hours
In short: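 MCF-10A cells (500-5,000/well) treated 96 h at 37° C with 9-point 3-fold dilutions from up to 30 μM, ≤0.25% DMSO, in duplicate. Viability by CellTiter Glo luminescence; % inhibition versus DMSO-only wells gave IC50, relative IC50 or % top inhibition. Paclitaxel positive control.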

[1] = mouse, ip, 15 mg/kg
Method: (§4) Test compounds were dissolved either in 20% (w/w) sulfobutylether-β-cyclodextrin (SBECD) pH 3-7 aqueous solution, or 5% DMSO/(30-50%) PEG400/(65-45%) water. Test compound dosing solutions were administered intraperitoneally to Balb/c nude male mice. Blood samples were collected at various time points with EDTA-K2 as anti-coagulant on ice, and centrifuged to obtain plasma samples. The plasma samples were stored at −20° C. until analysis.
(§5) Into 10 μL of test compound plasma samples were added 2 μL DMSO then 200 μL of 5 ng/mL internal standard (VTSD) (Terfenadine) in MeOH/acetonitrile. The mixture was vortexed for 1 minute and centrifuged at 4000 rpm for 15 minutes. Calibration standards were prepared by spiking known amount of test compounds into blank plasma samples. The supernatant solution was diluted 5 times with Acetonitrile/H2O (with 0.1% formic acid, 1:1, v/v), and this is the solution for LC-MS/MS analysis. The limit of quantification (LOQ) was 1 ng/mL.
(§6) Typical HPLC mobile phases were mobile phase of 5 mM NH4OAc (with 0.05% formic acid); and mobile phase B of acetonitrile (with 0.1% formic acid). The HPLC column was Kinetex C18 (30 mm×3.00 mm). Mass spectrometer was tuned for each compound in the Multiple Reaction Monitoring (MRM) scanning mode and in the electrospray ionization mode. The lower limit of quantification was 1-10 ng.
(§7) In this study, K601 (RSL3) was formulated in 5% DMSO/30% PEG 400/65% water at 1.5 mg/mL. The volume of injection via intraperitoneal route was 10 mL/kg for a dose of 15 mg/kg. […] The limit of quantification (LOQ) was 1 ng/mL.
(§8) In this study, the compound was formulated in 20% (w/w) sulfobutylether-β-cyclodextrin (SBECD), pH 5 aqueous solution at 1.5 mg/mL. The volume of injection via intraperitoneal route was 10 mL/kg for a dose of 15 mg/kg. The concentration of test compounds in plasma were analyzed by LC-MS with the method described above. The limit of quantification was 1 ng/mL.
(§9) It was formulated in 5% DMSO/50% PEG400/45% Water pH adjusted to 4 with HCl as an aqueous solution at 1.0 mg/mL. The volume of injection via intraperitoneal route was 15 mL/kg for a dose of 15 mg/kg. The concentration of test compounds in plasma were analyzed by LC-MS with the method described above. The limit of quantification was 1 ng/mL. […] The limit of quantification was 1 ng/mL.
(§10) Compounds 24 and 28 were formulated in 20% (w/w) sulfobutylether-β-cyclodextrin (SBECD) with pH 3 and pH 4, respectively, as an aqueous solution at 1.0 mg/mL. Compound 67 was in 5% DMSO/50% PEG 400/45% water pH 4 (adjusted with 12 N HCl) aqueous solution at 1.0 mg/mL. The injection volume via intraperitoneal route was 10 mL/kg for a dose of 15 mg/kg. The concentration of test compounds in plasma were analyzed by LC-MS with the method described above. The limit of quantification was 1 ng/mL.

in vivo = conditions: male, Balb/c nude, mouse, ip, 15 mg/kg
Method: as §4, §5, §6, §7, §8, §9, §10

H1299 = experiment: Cell viability assay (CellTiter Glo), lung cancer cell line H1299; type: cell-based; conditions: Homo sapiens, NCI-H1299, 96 hours
Method: as §1
(§3) A group of selected analogs were further profiled in cell viability assays described above in multiple additional cancer cell lines, including lung cancer, melanoma, hepatocarcinoma, pancreatic cancer, leukemia, lymphoma, ovarian cancer, breast cancer, colon cancer, and sarcoma cell lines. Initial cell seeding numbers were adjusted for each cell line. Typically, 500-5000 cells/well for adherent cells and 5000-10000/well for suspension cells were seeded in 96-well plates.

H2228 = experiment: Cell viability assay (CellTiter Glo), lung cancer cell line H2228; type: cell-based; conditions: Homo sapiens, NCI-H2228; lung cancer cell line, 96 hours, CellTiter Glo; read-out: IC50 H2228
Method: as §1, §3

MDA-MB-435S = experiment: Cell viability assay (CellTiter Glo), melanoma cell line MDA-MB-435S; type: cell-based; conditions: Homo sapiens, 96 hours
Method: as §1, §3

Huh7 = experiment: Cell viability assay (CellTiter Glo), hepatocellular carcinoma Huh7; type: cell-based; conditions: Homo sapiens, Huh-7, 96 hours
Method: as §1, §3

PANC1 = experiment: Cell viability assay (CellTiter Glo), pancreatic cell line PANC1; type: cell-based; conditions: Homo sapiens, PANC-1, 96 hours
Method: as §1, §3
The results of the assay in the pancreatic cell lines are given in Table 15a for PANC1, Table 15b for MiaPaCa-2, and Table 15c for AsPC-1.

MV-4-1 = experiment: Cell viability assay (CellTiter Glo), leukemia cell line MV-4-1; type: cell-based; conditions: 96 hours
Method: as §1, §3
The results of the assay in the leukemia cell lines are given in Table 16a for MV-4-1 and Table 16b for HL-60 and Kasumi-1.

REC-1 = experiment: Cell viability assay (CellTiter Glo), lymphoma cell line REC-1; type: cell-based; conditions: Homo sapiens, Rec1, 96 hours
Method: as §1, §3

Raji = experiment: Cell viability assay (CellTiter Glo), lymphoma cell line Raji; type: cell-based; conditions: Homo sapiens, 96 hours
Method: as §1, §3

SK-OV-3 = experiment: Cell viability assay (CellTiter Glo), ovarian cancer cell line SK-OV-3; type: cell-based; conditions: Homo sapiens, 96 hours
Method: as §1, §3

HCC1954 = experiment: Cell viability assay (CellTiter Glo), breast cancer cell line HCC1954; type: cell-based; conditions: Homo sapiens, 96 hours
Method: as §1, §3

HT29 = experiment: Cell viability assay (CellTiter Glo), colon cancer cell line HT29; type: cell-based; conditions: Homo sapiens, HT-29, 96 hours
Method: as §1, §3

SW480 = experiment: Cell viability assay (CellTiter Glo), colon cancer cell line SW480; type: cell-based; conditions: Homo sapiens, 96 hours
Method: as §1, §3

HT-1080 luc2 = experiment: Cell viability assay (CellTiter Glo), fibrosarcoma HT-1080 luc2; type: cell-based; conditions: Homo sapiens, fibrosarcoma expressing a luciferase gene, 96 hours, CellTiter Glo, read-out: IC50 HT-1080 luc2
Method: as §1, §3, §2

| Compound | IC50 (MCF-10A) [nM] | IC50 (H1299) [nM] | IC50 (H2228) [nM] | IC50 (MDA-MB-435S) [nM] | IC50 (Huh7) [nM] | IC50 (PANC1) [nM] | IC50 (MV-4-1) [nM] | IC50 (REC-1) [nM] | IC50 (Raji) [nM] | IC50 (SK-OV-3) [nM] | IC50 (HCC1954) [nM] | IC50 (HT29) [nM] | IC50 (HT-1080 luc2) [nM] | also measured |
| --- | --- | --- | --- | --- | --- | --- | --- | --- | --- | --- | --- | --- | --- | --- |
| COC(=O)[C@H]1Cc2c([nH]c3ccccc23)[C@H](c2ccc(C(=O)OC(C)(C)C)cc2)N1C(=O)CCl [Example 1] | 850 | – | – | – | – | – | – | – | – | – | – | – | – | IC50 (MiaPaCa-2): 5 nM; IC50 (143B): 9 nM; IC50 (SJSA-1): 18 nM; AUC Extr ([1]; male, Balb/c nude, in vivo): 7.26%; exposure (Cmax, AUC) compared with K601 (RSL3) ([1]; in vivo): higher exposure; AUC (in vivo): 123 ng·h/mL; AUC(0-inf) (in vivo): 132 ng·h/mL; AUC(0-t) (in vivo): 123 ng·h/mL; Cmax (in vivo): 126 ng/mL; MRT inf (in vivo): 1.4 h; Tmax (in vivo): 0.5 h; half-life (in vivo): 1.12 h; concentration at 0.5 h (in vivo; Calculated Concentration): 146 ng/mL; concentration at 1 h (in vivo; Calculated Concentration): 56.1 ng/mL; concentration at 4 h (in vivo; Calculated Concentration): 5.56 ng/mL; concentration at 0.5 h (in vivo; Calculated Concentration, Mean): 126 ng/mL; concentration at 1 h (in vivo; Calculated Concentration, Mean): 42.6 ng/mL; concentration at 2 h (in vivo; Calculated Concentration, Mean): 14.9 ng/mL; concentration at 4 h (in vivo; Calculated Concentration, Mean): 5.74 ng/mL |
| COC(=O)c1ccc([C@H]2c3[nH]c4ccccc4c3C[C@H](C(=O)O)N2C(=O)CCl)cc1 [Example 3] | – | – | – | – | – | – | – | – | – | – | – | – | – | detection in vivo of hydrolyzed products of K601 (RSL3) [1]: detected |
| COC(=O)[C@H]1Cc2c([nH]c3ccccc23)[C@H](c2ccc(C(=O)O)cc2)N1C(=O)CCl [Example 4] | – | – | – | – | – | – | – | – | – | – | – | – | – | detection in vivo of hydrolyzed products of K601 (RSL3) [1]: detected |
| O=C(O)c1ccc([C@H]2c3[nH]c4ccccc4c3C[C@H](C(=O)O)N2C(=O)CCl)cc1 [Example 5] | – | – | – | – | – | – | – | – | – | – | – | – | – | detection in vivo of hydrolyzed products of K601 (RSL3) [1]: detected |
| COC(=O)[C@H]1Cc2c([nH]c3ccccc23)[C@H](c2ccc(NCC3CC3)cc2)N1C(=O)CCl [Example 83] | 3790 | 41 | 112 | 47 | 120 | > 1000 | 524 | 516 | 151 | 230 | 333 | 338 | 38 | IC50 (SW480): 10500 nM |
| COC(=O)c1ccc([C@@H]2c3[nH]c4ccc(Cl)cc4c3C[C@H](C(=O)OC)N2C(=O)CCl)cc1 [Example 94] | 460 | 5 | 19 | 9 | 26 | 47 | 83 | 29 | 9 | 18 | 68 | 110 | 8 | – |
| CC[C@H]1Cc2c([nH]c3ccccc23)[C@H](c2ccc(C(=O)OC)cc2)N1C(=O)CCl [Example 98] | 920 | 6 | 17 | 7 | 27 | 43 | 65 | 61 | 20 | 30 | 63 | 94 | 9 | – |
| C[C@H]1Cc2c([nH]c3ccccc23)[C@H](c2ccc(S(=O)(=O)N[C@]34CC5C[C@H](C[C@H](C5)C3)C4)cc2)N1C(=O)CCl [Example 101] | 1070 | 38 | 163 | 36 | 72 | 169 | 174 | 191 | 75 | 114 | 613 | 403 | 39 | – |
| C[C@H]1Cc2c([nH]c3ccccc23)[C@H](c2ccc(C(=O)N[C@]34CC5C[C@H](C[C@H](C5)C3)C4)cc2)N1C(=O)CCl [Example 102] | 220 | 3 | 9 | 4 | 11 | 30 | 23 | 31 | 10 | 13 | 38 | 48 | 4 | – |
| C[C@H]1Cc2c([nH]c3ccccc23)[C@H](c2ccc(N3CCOCC3)cc2)N1C(=O)CCl [Example 103] | 1370 | 21 | 34 | 38 | 84 | 161 | 230 | 186 | 74 | 113 | 137 | 448 | 28 | – |
| C[C@H]1Cc2c([nH]c3ccccc23)[C@H](c2ccc([Si](C)(C)C)cc2)N1C(=O)CCl [Example 106] | – | 7 | 55 | 17 | 28 | 55 | 170 | 156 | 31 | 87 | 120 | 189 | 11 | – |
| C[C@H]1Cc2c([nH]c3ccccc23)[C@H](c2ccc(C3CCCC3)cc2)N1C(=O)CCl [Example 109] | 1140 | 32 | 57 | 17 | 43 | 69 | 168 | 106 | 38 | 63 | 108 | 174 | 19 | – |
| C[C@H]1Cc2c([nH]c3ccccc23)[C@H](c2ccc(C3CCCCC3)cc2)N1C(=O)CCl [Example 110] | – | 30 | 51 | 14 | 35 | 72 | 164 | 96 | 33 | 53 | 101 | 112 | 17 | – |
| C[C@H]1Cc2c([nH]c3ccccc23)[C@H](c2ccc(C3CCOCC3)cc2)N1C(=O)CCl [Example 112] | – | 38 | 66 | 30 | 81 | 81 | 270 | 140 | 46 | 102 | 101 | 198 | 24 | – |
| COC(=O)c1ccc([C@H]2c3[nH]c4ccc(OC)cc4c3C[C@H](C)N2C(=O)CCl)cc1 [Example 113] | – | 79 | 145 | 48 | 157 | 214 | 532 | 222 | 81 | 146 | 200 | 494 | 69 | – |

From patent publication US11098040B2, “Compounds and methods of use” (Ferro Therapeutics, Inc., priority 2018, dated 2021)
